The text below walks through data of BindingDB's records for doi:10.1021/jm00096a017 (Kyowa Hakko Kogyo, 1992).

The nature of the assay: Compound was tested for its binding affinity at Thromboxane A2/ Prostaglandin H2 receptor by measuring its ability to displace [3H]U-46619 from guinea pig platelets.
What is called Ki is a measure of affinity in units of concentration, obtained from inhibition or displacement. Lower therefore signals a stronger hold on the target. On to `O=C(O)c1ccc2c(c1)/C(=C/Cn1cnc3cc(C(F)(F)F)ccc31)c1ccccc1CO2`, for which affinity was put at a Ki of 2.2 nM. Under `O=C(O)c1ccc2c(c1)/C(=C/Cn1cnc3cc(C(=O)O)ccc31)c1ccccc1CO2` stands 30 nM; under `COc1ccc2c(c1)ncn2C/C=C1\c2ccccc2COc2ccc(C(=O)O)cc21`, 3.2 nM; under `COc1cc(OC)c2ncn(C/C=C3\c4ccccc4COc4ccc(C(=O)O)cc43)c2c1`, 88 nM. Next, `Cc1ccc2c(ncn2C/C=C2\c3ccccc3COc3ccc(C(=O)O)cc32)c1C`: 3.6 nM; `Cc1cc2ncn(C/C=C3/c4ccccc4COc4ccc(C(=O)O)cc43)c2cc1C`: 64 nM. Next, `Cc1cc2ncn(C/C=C3\c4ccccc4COc4cc(C(=O)O)ccc43)c2cc1C`: 1800 nM; `Cc1ccc2c(c1)ncn2C/C=C1\c2ccccc2COc2ccc(C(=O)O)cc21`: 15 nM. `COc1ccc2ncn(C/C=C3\c4ccccc4COc4ccc(C(=O)O)cc43)c2c1`: the affinity, expressed as Ki, was 12 nM. Under `O=C(O)c1ccc2c(c1)/C(=C\Cn1cnc3ccccc31)c1ccccc1CO2` stands 15 nM; under `O=C(O)c1ccc2c(c1)/C(=C/Cn1cnc3cc(Cl)ccc31)c1ccccc1CO2`, 6 nM; under `O=C(O)c1ccc2c(c1)/C(=C/Cn1cnc3cc(F)ccc31)c1ccccc1CO2`, 8.3 nM. Under `O=C(O)c1ccc2c(c1)/C(=C/Cn1cnc3cc4c(cc31)OCO4)c1ccccc1CO2` stands 2.7 nM; under `Cc1cc2ncn(CCC3c4ccccc4COc4ccc(C(=O)O)cc43)c2cc1C` (centres undefined), 18 nM. Consider `O=C(O)c1ccc2c(c1)/C(=C/Cn1cnc3cc(C(O)c4ccccc4)ccc31)c1ccccc1CO2` (centres undefined), for which the affinity corresponds to a Ki of 6.1 nM. Next, `Cc1cc2ncn(C/C=C3\c4ccccc4COc4ccc(CC(=O)O)cc43)c2cc1C`: 63 nM.

In the case of `O=C(O)c1ccc2c(c1)/C(=C/Cn1cnc3ccc(Cl)cc31)c1ccccc1CO2`, affinity was put at a Ki of 15 nM. Next, `O=C(O)c1ccc2c(c1)/C(=C/Cn1cnc3cc4ccccc4cc31)c1ccccc1CO2`: 280 nM; `O=C(O)c1ccc2c(c1)/C(=C/CNS(=O)(=O)c1ccccc1)c1ccccc1CO2`: 11 nM; `Cc1ccc2ncn(C/C=C3\c4ccccc4COc4ccc(C(=O)O)cc43)c2c1`: 23 nM. Under `O=C(O)c1ccc2c(c1)/C(=C/Cn1cnc3ccc(C(O)c4ccccc4)cc31)c1ccccc1CO2` (centres undefined) stands 17 nM; under `COc1cc(OC)c2c(c1)ncn2C/C=C1\c2ccccc2COc2ccc(C(=O)O)cc21`, 6.1 nM; under `Cc1cccc2c1ncn2C/C=C1\c2ccccc2COc2ccc(C(=O)O)cc21`, 17 nM. Compound `O=C(O)c1ccc2c(c1)/C(=C/Cn1cnc(-c3ccccc3)c1-c1ccccc1)c1ccccc1CO2` came in with a Ki of 164 nM. Consider `O=C(O)c1ccc2c(c1)/C(=C/Cn1cnc3cc(C(=O)NCc4ccccc4)ccc31)c1ccccc1CO2`, for which the affinity, expressed as Ki, was 0.91 nM.

Compound `O=C(O)c1ccc2c(c1)/C(=C/Cn1cnc3cc([N+](=O)[O-])ccc31)c1ccccc1CO2` yielded a Ki of 1.8 nM. In the case of `Cc1cc2ncn(C/C=C3\c4cc(C(=O)O)ccc4COc4ccccc43)c2cc1C`, the affinity corresponds to a Ki of 1300 nM. Under `COc1cc2ncn(C/C=C3\c4ccccc4COc4ccc(C(=O)O)cc43)c2cc1OC` stands 3.4 nM; under `Cc1cc2ncn(C/C=C3\c4ccccc4COc4ccc(C(=O)O)cc43)c2cc1C` [11-[2-(5,6-Dimethyl-benzoimidazol-1-yl)-ethylidene]-6,11-dihydro-dibenzo[b,e]oxepine-2-carboxylic acid (0.5H2O)], 2.7 nM.
